Results on 7 compounds are retold here after patent US4057684A, “Alkyl amino-glucopyranoside derivative and process for producing the same” (priority 1975, dated 1977).

Series [1] is described as follows: peripheral white blood cell counts (bone marrow toxicity) and survival in normal male ICR mice. The class given is in vivo, mouse (ICR). How it is done:
Such peripheral white blood cell counts were performed as follows: Normal male ICR mice were used in groups of tens and the test compounds for treatment were made into their respective solutions. 2MCαG and 6MCαG were dissolved in physiological saline solutions, while CCNU and GCNU were suspended in 0.5% CMC aqueous solution and 50% PEG aqueous solution, respectively. A single administration at volume of 1 ml per 100 g body weight of animal (0.1 ml/10 g) was given intraperitoneally, and the peripheral white blood cell counts were performed 3, 8 and 15 days after administration of the test compounds.

Series [2] in a line: blood sugar level / diabetogenic activity. The class given is in vivo, rat (male Wister). Conditions: rat, in vivo.
Series [3] relates to bacteria. Briefly: antibacterial activity, broth dilution method. (In general: In broth dilution the organism is exposed to a series of concentrations in liquid medium.)
For series [4], the system named is solid as well as ascites tumor systems. Nature of the series: antitumor activity in the tumor systems (overall). The format is in vivo, mouse. Conditions: for antitumor activity compared with its α-anomer: vs α-anomer; for antitumor activity compared with the compounds of examples 1 and 4: mouse, in vivo. From the text:
(§1) Results of pharmacological studies for amino-glucopyranoside [I] according to the invention are described below. The test compounds which were used included methyl N-carbamyl-N'-(2-chloroethyl)-N'-nitroso-2-amino-2-deoxy-α-D-glucopyranoside and methyl N-carbamyl-N'-(2-chloroethyl)-N'-nitroso-6-amino-6-deoxy-α-D-glucopyranoside (hereinafter abbreviated to 2MCαG and 6MCαG, respectively). The control compounds which were employed were 1-(2-chloroethyl)-3-cyclohexyl-1-nitrosoourea (hereinafter abbreviated to CCNU), which had been widely applied as a control compound in such a pharmacological test of the streptozotocin derivatives, and GCNU referred to previously. The tumor systems which were used were leukemia L-1210, Nakahara-Fukuoka sarcoma, adenocarcinoma-755, ascites sarcoma 180 and Ehrlich ascites carcinoma (hereinafter abbreviated to L-1210, NFS, Ca-755, S-180A and EAC, respectively), and the antitumor activities were determined by a procedure of the National Cancer Center, Tokyo (A. Hoshi et al.: Farumashia 9, 464(1973)). The test animals which were used were ICR and BDF1 mice.

In series [5] the test system is Nakahara-Fukuoka sarcoma (NFS). Nature of the series: antitumor effect against Nakahara-Fukuoka sarcoma (NFS) implanted in mice. The class given is in vivo, mouse (ICR).
Text: as §1
(§2) ^a Treatment was initiated 24 hr after implantation of tumor (day 1):
(§3) D1~5 = qd, day 1~5; D1 = day 1 only.
(§4) ^b T/C is expressed as the tumor weight ratio in solid tumors or tota
(§5) packed cell volume ratio in ascites tumors of treated/control.

Series [6] concerns adenocarcinoma-755 (Ca-755). Nature of the series: antitumor effect against adenocarcinoma-755 (Ca-755) implanted in mice. The class given is in vivo, mouse (BDF1).
Text: as §1, §2, §3, §4, §5

For series [7], the system named is ascites sarcoma 180 (S-180A). Briefly: antitumor effect against ascites sarcoma 180 (S-180A) implanted in mice. The format is in vivo, mouse (ICR).
Text: as §1, §2, §3, §4, §5

Series [8] has as its system Ehrlich ascites carcinoma (EAC). Briefly: antitumor effect against Ehrlich ascites carcinoma (EAC) implanted in mice. The class given is in vivo, mouse (ICR).
Text: as §1, §2, §3, §4, §5

Series [9] relates to leukemia L-1210. Nature of the series: increase in life span and survival of leukemia L-1210 implanted mice. The format is in vivo, mouse (BDF1).
Text: as §1, §2, §3
^d % increase in life span (mean survival time) over controls.
^e 60 days survivors/total in treated group.

The mark [10] stands for this setting: 8.5 mg/kg/day ip, 5 successive days, BDF1 mice.
The mark [11] stands for this setting: 12.0 mg/kg/day ip D1~5, ICR mice.
Setting [12] is: 20.0 mg/kg/day ip D1~5, ICR mice.
Where [13] appears, read: 10.0 mg/kg/day ip D1~5, BDF1 mice.
The mark [14] stands for this setting: 25.0 mg/kg/day ip D1~5, BDF1 mice.
[15] abbreviates: 12.5 mg/kg/day ip D1~5, ICR mice.
The mark [16] stands for this setting: 3.2 mg/kg/day ip, 5 successive days.

For `CO[C@@H]1O[C@H](CNC(=O)N(CCCl)N=O)[C@@H](O)[C@H](O)[C@H]1NC(=O)N(CCCl)N=O` [Example 7, methyl di-N,N'-[N-(2-chloroethyl)-N-nitroso-carbamyl]-2,6-di-amino-2,6-di-deoxy-3-D-glucopyranoside], in series [1] (vs compound of example 3), the “bone marrow toxicity compared with its α-anomer” value is listed as “reduced bone marrow toxicities”. Further, the diabetogenic activity result in [2] is recorded as “neither diabetogenic nor antibacterial activities”. Besides, the antibacterial activity entry in [3] is “neither diabetogenic nor antibacterial activities”. For the same compound, the “antitumor activity compared with its α-anomer” value in series [4] is 5~20%.

Take `CO[C@@H]1O[C@H](CNC(=O)N(CCCl)N=O)[C@@H](O)[C@H](O)[C@H]1O` [Example 12, methyl N-carbamyl-N'-(2-chloroethyl)-N'-nitroso-6-amino-6-deoxy-β-D-glucopyranoside]: the “reduced bone marrow toxicity compared with its α-anomer” value in [1] (vs α-anomer) was 110~120%. Moreover, the diabetogenic activity result in [2] is “neither diabetogenic nor antibacterial activities”. Further, the antibacterial activity entry in series [3] was “neither diabetogenic nor antibacterial activities”. Moreover, in series [4], the “antitumor activity compared with its α-anomer” value is 110~120%.

Usually ILS stands for how much longer treated animals lived than controls. With `CO[C@H]1O[C@H](CNC(=O)N(CCCl)N=O)[C@@H](O)[C@H](O)[C@H]1NC(=O)N(CCCl)N=O` [Example 3], the Activity entry in [5] (setting [10]), in series [6] (setting [10]), in [7] (setting [10]) and in series [8] (setting [10]) was “++ or +++” each time. The ILS in series [9] (2.2 mg/kg/day ip, 5 successive days) is 400%; in series [9] (4.5 mg/kg/day orally), 370%; in [9] (single ip, 7~15 mg/kg), 717%. In addition, the 60-days survivors result in series [9] (single ip, 7~15 mg/kg) is reported as “all six animals tested survived”. Moreover, in [1] (mouse, in vivo), the “bone marrow toxicity compared with CCNU” value is “less than that of CCNU”. The “bone marrow toxicity compared with GCNU” value in series [1] (mouse, in vivo) is “comparable to GCNU”. Besides, the diabetogenic activity entry in series [2] is recorded as “nondiabetogenic”. Further, the antibacterial activity result in [3] is given as “void of antibacterial activities”.

Turning to `CCCCO[C@H]1O[C@H](CO)[C@@H](O)[C@H](O)[C@H]1NC(=O)N(CCCl)N=O` [Example 9 α-anomer, n-butyl N-carbamyl-N'-(2-chloroethyl)-N'-nitroso-2-amino-2-deoxy-α-D-glucopyranoside], the “bone marrow toxicity compared with the compounds of examples 1 and 4” value in [1] (mouse, in vivo) is listed as “same low levels”. Also, in [2], the diabetogenic activity result is given as “neither diabetogenic nor antibacterial activities”. In series [3], the antibacterial activity entry was “neither diabetogenic nor antibacterial activities”. For the same compound, the “antitumor activity compared with the compounds of examples 1 and 4” value in series [4] was “same level of anitumor activity”.

By T/C is commonly meant the result in the treated group divided by that in the control group, in per cent. For `O=NN(CCCl)C(=O)NC1CCCCC1` [CCNU, 1-(2-chloroethyl)-3-cyclohexyl-1-nitrosoourea, reference compound], the Activity result is reported as “+ (70~51% = +)” in series [5] (setting [11]), “++ (50~21% = ++)” in series [5] (setting [12]), “+++ (20~0% = +++)” in series [6] (setting [13]) and “Toxic” in series [6] (setting [14]). Also, the T/C in [5] (setting [11]) came out at 57.5%; in series [5] (setting [12]) it was 48.3%; in series [6] (setting [13]), 15.0%; in series [6] (setting [14]), 1.1%. For the same compound, the died/used in series [6] (setting [14]) is 6/6. The “Death rate (death/used)” value in series [1] (20 mg/kg ip single) is recorded as 0/10; in series [1] (40 mg/kg ip single), 1/10; in series [1] (60 mg/kg ip single), 9/10; in [1] (80 mg/kg ip single) it was 10/10. Also, the “Average count of WBC” value in series [1] (20 mg/kg ip single, day 3) was 38.7±2.9 x 10^2 WBC/mm^3; in series [1] (20 mg/kg ip single, day 8), 81.8±5.0 x 10^2 WBC/mm^3; in series [1] (20 mg/kg ip single, day 15) it was 100.4±9.8 x 10^2 WBC/mm^3; in series [1] (40 mg/kg ip single, day 3), 31.5±1.7 x 10^2 WBC/mm^3; in [1] (40 mg/kg ip single, day 8) it was 59.0±6.0 x 10^2 WBC/mm^3; in series [1] (40 mg/kg ip single, day 15), 77.9±9.0 x 10^2 WBC/mm^3. Besides, the “Average count of WBC” value is on record as 27.9±3.7 x 10^2 WBC/mm^3 in series [1] (60 mg/kg ip single, day 3); 60.0 x 10^2 WBC/mm^3 in [1] (60 mg/kg ip single, day 8); 36.0 x 10^2 WBC/mm^3 in [1] (60 mg/kg ip single, day 15); 20.4±2.5 x 10^2 WBC/mm^3 in series [1] (80 mg/kg ip single, day 3).

With `CCCCO[C@@H]1O[C@H](CO)[C@@H](O)[C@H](O)[C@H]1NC(=O)N(CCCl)N=O` [Example 9 3-anomer, n-butyl N-carbamyl-N'-(2-chloroethyl)-N'-nitroso-2-amino-2-deoxy-3-D-glucopyranoside], the “bone marrow toxicity compared with the compounds of examples 1 and 4” value in series [1] (mouse, in vivo) is listed as “same low levels”. Moreover, in series [2], the diabetogenic activity result is “neither diabetogenic nor antibacterial activities”. For the same compound, the antibacterial activity entry in [3] is on record as “neither diabetogenic nor antibacterial activities”. Also, the “antitumor activity compared with the compounds of examples 1 and 4” value in series [4] was “same level of anitumor activity”.

As to `CO[C@@H]1O[C@H](CO)[C@@H](O)[C@H](O)[C@H]1NC(=O)N(CCCl)N=O` [Example 4, methyl N-carbamyl-N'-(2-chloroethyl)-N'-nitroso-2-amino-2-deoxy-β-D-glucopyranoside], the Activity result in [5] (setting [15]) is recorded as “++ or +++”; in series [6] (12.5 mg/kg/day ip D1~5, BDF1 mice), “++ or +++”; in series [7] (setting [15]), “++ or +++”; in series [8] (setting [15]) it was “++ or +++”. Besides, the “accumulation of ascites tumor cells” value in series [7] (setting [16]) and in series [8] (setting [16]) was “ascites cells accumulation was not detectable” each time. The ILS turned out to be 480% in series [9] (3.2 mg/kg/day ip D1~5); 385% in [9] (6.3 mg/kg/day po D1~5); 717% in series [9] (single ip, 8~25 mg/kg). In addition, the 60-days survivors entry in series [9] (single ip, 8~25 mg/kg) is “all six test animals surviving after 60-days”. Further, the “bone marrow toxicity, less than the α-anomer” value in series [1] (LD10 dosage) is 5~20%. In addition, the “peripheral white blood cell count, higher than that of the α-anomer” value in [1] (LD10 dosage, 3, 8 and 15 days) is given as 5~20%. Moreover, in series [2], the diabetogenic activity entry is reported as “not found to be either diabetogenic”. In addition, in [3], the antibacterial activity entry is “not found to be either diabetogenic or exhibited any antibacterial activities”. The “antitumor activity compared with its α-anomer” value in series [4] was 110~120%.
